# Data from patent US8945540B2, “Compositions for enhancing the antibacterial activity of myeloperoxidase and methods of use thereof” (Exoxemis, Inc., priority 2008, dated 2015).
# Tested on: Staphylococcus aureus
# Test: Microbicidal activity of the myeloperoxidase system (p-MPO, glucose oxidase, glucose) with amino acids in the presence of blood, CFU plate counts; synergy determination from these CFU
# Format: cell-based
# Conditions: for Average Viability CFU/ml 50 min / Log Reduction 50 min: MPO 4.7 U/ml, GO 4.2 U/ml; for Predicted vs Actual: actual CFU as % of predicted value; for Predicted Average of Amino Acids: average of CFU of the individual D- and L-enantiomers; for Actual CFU: racemic mixture, standard conditions of Example 5
# Description: Bacterial suspensions, specifically Staphylococcus aureus in this example, were prepared by the shake flask method to achieve late log to early stationary phase growth. Bacteria were grown 24 hours in trypticase soy broth (TSB) at 35° C. The cultures were centrifuged at 4,000 rpm for 10 minutes and the supernatants removed. The pellet was collected and washed twice with sterile 0.9% normal saline (NS). The washed microorganisms were suspended and diluted with normal saline to a 3 McFarland standard, i.e., approximately 10^9 bacteria colony forming units (CFU) per mL. Actual colony counts are confirmed by serial dilutions (10^−1 to 10^−5 or 10^−6) plated on TSA and incubated overnight at 35° C. To obtain an approximate final working target inoculum of 10^7 CFU/mL, 15 microliters of organisms per mL of final reaction mixture are used.
# Glucose oxidase (GO) from Aspergillus Niger was purchased from Biozyme, Inc., UK, Cat #GO3A, 270 U/mg). Porcine Myeloperoxidase (p-MPO) (Exoxemis, Inc., Little Rock, Ark. U.S.A., 375 U/mg). Sterile stock solutions of D-glucose and sodium chloride were prepared and used at a final concentration of 150 mM each. L-Lysine hydrochloride (Spectrum Chemical Cat #L1142) was prepared as a 100 mM stock solution. Catalase (Sigma, Cat #C-40) was prepared as a 1% stock solution in sterile 0.9% normal saline. Blood was collected by venipuncture and used as whole blood within the same day.
# Staphylococcus aureus were used to give a final target concentration of 2-3×10^7 CFU (7.4 log 10) per mL and venous whole blood was used to give a final concentration of 3%. Glucose was added to the reaction mixtures to a final concentration of 150 mM, which initiated the microbicidal reaction. The final volume of the reaction mixtures was 1 mL. The reactions were allowed to run from 30 minutes to 2 hours, as needed, at room temperature or at 37° C. in a dry bath. At the specified time points the reaction mixtures were treated with 100 microliters of a catalase solution, containing a minimum of 100 units/μL, to consume remaining peroxide and terminate the oxidative killing. Serial dilution plate counts were performed from the contents of each vial in sterile saline and inoculated onto trypticase soy agar (TSA) for quantitative culture. Plates were then incubated at 37° C. and counts taken at 24 hours. […] The results are shown in Table 1, as the average of 2 replicates.
# The amino acids alone, in the absence of MPO were tested to rule out their microbicidal activity. The results are shown in Table 2 to Table 6, as the average of 2 replicates.
# The amino acid analogues alone, in the absence of MPO, were tested to rule out their microbicidal activity. […]
# The effect of two-way combinations of individual amino acids with L-isoleucine, as potential enhancing agents, for MPO microbicidal action in the presence of blood, was therefore examined by following the procedure of Example 5.
# The Actual CFU observed for the pair is then divided by the Predicted CFU and multiplied by 100 to calculate the % of Predicted value. This value is then to be compared to the threshold value, discussed in the next section, to determine whether the pair are synergistic, antagonistic, or additive.
# Calculation of appropriate threshold values for determination of synergism and antagonism was based upon the variability of replicated CFU survivor measures.
# [1] = Table 19, amino acid (racemic, L- or D-form) 2.5 mM, 50 min
# [2] = Table 11, single amino acid 2.5 mM, in the presence of blood, 50 min
# [3] = Table 14, single amino acid 2.5 mM, in the presence of blood, 50 min
# [4] = single amino acid 2.5 mM, blood
SMILES,Average Viability CFU/ml 50 min [1] [CFU/ml],Log Reduction 50 min [1],Predicted vs Actual [%],Predicted Average of Amino Acids [CFU],Actual CFU [CFU],other results
"NC(Cc1ccccc1)C(=O)O (racemic) [d,l-Phenylalanine]",900000,1.4,9,9950000,900000,"synergistic, antagonistic or additive (from % of predicted value): synergistic (synergistic combinations with responses less than 25% of the predicted value)"
COC(=O)[C@@H](C)N [D-Ala methyl ester],,,,,,Average Viability CFU/ml 50 min [2]: 9500000 CFU/ml; Log Reduction 50 min [2]: 0.5; Average Viability CFU/ml 50 min [3]: 8850000 CFU/ml; Log Reduction 50 min [3]: 0.5
COC(=O)[C@@H](C)N [D-Alanine methyl ester],,,,,,"Log 10 (CFU + 1) Survivors (MPO 25 μg/mL, AA 5 mM, 30 min): 0.0; Log 10 (CFU + 1) Survivors (MPO 25 μg/mL, AA 5 mM, 60 min): 0.0; Log 10 (CFU + 1) Survivors (MPO 25 μg/mL, AA […], 30 min): 0.0; Log 10 (CFU + 1) Survivors (MPO 25 μg/mL, AA […], 60 min): 0.0; Log 10 (CFU + 1) Survivors (MPO 100 μg/mL, AA 5 mM, 30 min): 0.0; Log 10 (CFU + 1) Survivors (MPO 100 μg/mL, AA 5 mM, 60 min): 0.0; Log 10 (CFU + 1) Survivors (MPO 100 μg/mL, AA 20 mM, 30 min): 0.0; Log 10 (CFU + 1) Survivors (MPO 100 μg/mL, AA 20 mM, 60 min): 0.0; Average Viability CFU/ml 50 min [4]: 5450000 CFU/ml; Log Reduction 50 min [4]: 0.6"
"CC[C@H](C)[C@H](N)C(=O)O (racemic) [d,l-Isoleucine]",64000,2.7,39,162667,64000,
"CC(C)C(N)C(=O)O (racemic) [d,l-Valine]",685000,1.5,187,367250,685000,
"CC(C)CC(N)C(=O)O (racemic) [d,l-Leucine]",650000,1.6,310,209500,650000,
